Assay results from patent US9127038B2, “Kisspeptide-pentasaccharide conjugates” (Merck Sharp & Dohme Corp., priority 2011, dated 2015).
Like-named read-outs stand apart in the source and are kept apart here.

Target: T1, human KISS-receptor (Homo sapiens, UniProt Q969F8)
T1 construct: expressed in transfected cells; host or cells: CHO-k1 cells that also express mitochondrially targeted aequorin, Gα16 and an NFAT-luciferase reporter
Assay: NFAT-regulated luciferase reporter gene assay in CHO-k1 cells, agonist activity
Format: cell-based

[1] = pEC50 serum, presence of 20% human serum
[2] = absence of human serum, read-out: pEC50 (converted)
[3] = presence of 20% human serum, read-out: pEC50 serum (converted)

T1 sequence (Q969F8 whole entry): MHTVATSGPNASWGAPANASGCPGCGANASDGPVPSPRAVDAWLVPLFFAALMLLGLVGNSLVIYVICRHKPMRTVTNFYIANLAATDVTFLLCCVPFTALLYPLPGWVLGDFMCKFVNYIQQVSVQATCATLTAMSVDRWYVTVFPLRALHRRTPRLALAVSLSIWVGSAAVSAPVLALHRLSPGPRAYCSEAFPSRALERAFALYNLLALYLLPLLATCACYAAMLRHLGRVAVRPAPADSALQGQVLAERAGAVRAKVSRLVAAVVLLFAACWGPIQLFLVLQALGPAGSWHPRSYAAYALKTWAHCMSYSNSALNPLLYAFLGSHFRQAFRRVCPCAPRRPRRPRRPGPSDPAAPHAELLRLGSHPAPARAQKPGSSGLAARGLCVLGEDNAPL
Experimental: CHO-k1 cells were used that expressed the mitochondrially targeted aequorine and Gα16 (from Euroscreen, Brussels, Belgium), a Nuclear Factor of Activated T-cells-responsive element (NFAT) under the control of a promoter directing the expression of a firefly luciferase reporter gene (pNFAT-TALuc obtained from Clontech, Mountain View, Calif.), and the human GPR54-R Hygro(+)-hGPR54WT c4; MSD). These cells were cultured in Dulbecco's Modified Eagle Medium: Nutrient Mixture F-12 (DMEM/F12) (Invitrogen, Carlsbad, Calif.), supplemented with 10% (vol/vol) filtered bovine serum (Hyclone, Thermo Fisher Scientific, Waltham, Mass.), 100 U/ml penicillin G, 100 μg/ml streptomycin, 400 μg/ml Geneticin and 400 μg/ml Hygromycin (Invitrogen). […] Kisspeptin-10 was used as a standard. […] When the conjugates were tested in the presence of a final percentage of 20% human serum, 10 μl assay medium containing 60% human serum (Sigma-Aldrich, #H4522) was added to the wells. In the absence of human serum, 10 μl of assay medium was added. Cells were harvested and diluted to a concentration of 7.5E5 cells/ml in assay medium without 0.1% BSA. 10 μl of cell solution was added to the compound wells. After incubation for 4 hours in a humidified atmosphere at 5% CO2 and 37° C., the plate was left at room temperature for 30 minutes. Subsequently, 15 μl of Steadylite™ solution (PerkinElmer, Boston, Mass.) was added and the cells, protected from light, were allowed to lyse for 30 min at room temperature. Luminescence, indicated as relative luminescence units (RLU), was measured on an Envision Multilabel reader (PerkinElmer).

Row | Structure (SMILES) | EC50 [2] [nM] | EC50 [3] [nM] | EC50 (pEC50, absence of human serum) [nM] | EC50 [1] [nM]
1 | CNC(=N)NCCC[C@H](NC(=O)[C@H](CC(C)C)NC(=O)NNC(=O)[C@H](Cc1ccccc1)NC(=O)[C@@H](NC(=O)[C@H](CC(N)=O)NC(=O)[C@H](Cc1c[nH]c2ccccc12)NC(=O)[C@H](CC(N)=O)NC(=O)[C@@H](Cc1ccc(O)cc1)NC(=O)CSCCC(=O)NCCOCCOCCOCCO[C@H]1[C@H](OC)[C@@H](OC)[C@@H](O[C@H]2[C@H](OC)[C@@H](OC)[C@H](O[C@H]3[C@H](OS(=O)(=O)O)[C@@H](OS(=O)(=O)O)[C@@H](O[C@H]4[C@H](OC)[C@@H](OC)[C@H](O[C@H]5[C@H](OS(=O)(=O)O)[C@@H](OS(=O)(=O)O)[C@@H](OC)O[C@@H]5COS(=O)(=O)O)O[C@H]4C(=O)O)O[C@@H]3COS(=O)(=O)O)O[C@@H]2C(=O)O)O[C@@H]1COS(=O)(=O)O)[C@@H](C)O)C(=O)N[C@@H](Cc1ccccc1)C(N)=O [Conjugate C2] | – | – | 0.0776 | 9.12
2 | CNC(=N)NCCC[C@H](NC(=O)[C@H](CC(C)C)NC(=O)NNC(=O)[C@H](Cc1ccccc1)NC(=O)[C@@H](NC(=O)[C@H](CC(N)=O)NC(=O)[C@H](Cc1c[nH]c2ccccc12)NC(=O)[C@H](CC(N)=O)NC(=O)[C@@H](Cc1ccc(O)cc1)Nc1c(NCCOCCOCCOCCOCC(=O)NCCOCCOCCOCCO[C@H]2[C@H](OC)[C@@H](OC)[C@@H](O[C@H]3[C@H](OC)[C@@H](OC)[C@H](O[C@H]4[C@H](OS(=O)(=O)O)[C@@H](OS(=O)(=O)O)[C@@H](O[C@H]5[C@H](OC)[C@@H](OC)[C@H](O[C@H]6[C@H](OS(=O)(=O)O)[C@@H](OS(=O)(=O)O)[C@@H](OC)O[C@@H]6COS(=O)(=O)O)O[C@H]5C(=O)O)O[C@@H]4COS(=O)(=O)O)O[C@@H]3C(=O)O)O[C@@H]2COS(=O)(=O)O)c(=O)c1=O)[C@@H](C)O)C(=O)N[C@@H](Cc1ccccc1)C(N)=O [Conjugate C3] | 0.0776 | 6.31 | – | –
3 | CNC(=N)NCCC[C@H](NC(=O)[C@H](CC(C)C)NC(=O)NNC(=O)[C@H](Cc1ccccc1)NC(=O)[C@@H](NC(=O)[C@H](CC(N)=O)NC(=O)[C@H](Cc1c[nH]c2ccccc12)NC(=O)[C@H](CC(N)=O)NC(=O)[C@@H](Cc1ccc(O)cc1)NC(=O)CCCCn1cc(CCC(=O)NCCOCCOCCOCCOCC(=O)NCCOCCOCCOCCO[C@H]2[C@H](OC)[C@@H](OC)[C@@H](O[C@H]3[C@H](OC)[C@@H](OC)[C@H](O[C@H]4[C@H](OS(=O)(=O)O)[C@@H](OS(=O)(=O)O)[C@@H](O[C@H]5[C@H](OC)[C@@H](OC)[C@H](O[C@H]6[C@H](OS(=O)(=O)O)[C@@H](OS(=O)(=O)O)[C@@H](OC)O[C@@H]6COS(=O)(=O)O)O[C@H]5C(=O)O)O[C@@H]4COS(=O)(=O)O)O[C@@H]3C(=O)O)O[C@@H]2COS(=O)(=O)O)nn1)[C@@H](C)O)C(=O)N[C@@H](Cc1ccccc1)C(N)=O [Conjugate C6] | – | – | 0.148 | 5.62
4 | CNC(=N)NCCC[C@H](NC(=O)[C@H](CC(C)C)NC(=O)NNC(=O)[C@H](Cc1ccccc1)NC(=O)[C@@H](NC(=O)[C@H](CC(N)=O)NC(=O)[C@H](Cc1c[nH]c2ccccc12)NC(=O)[C@H](CC(N)=O)NC(=O)[C@H](Cc1ccc(O)cc1)NC(=O)COCCOCCOCCOCCn1cc(CCC(=O)NCCOCCOCCOCCO[C@H]2[C@H](OC)[C@@H](OC)[C@@H](O[C@H]3[C@H](OC)[C@@H](OC)[C@H](O[C@H]4[C@H](OS(=O)(=O)O)[C@@H](OS(=O)(=O)O)[C@@H](O[C@H]5[C@H](OC)[C@@H](OC)[C@H](O[C@H]6[C@H](OS(=O)(=O)O)[C@@H](OS(=O)(=O)O)[C@@H](OC)O[C@@H]6COS(=O)(=O)O)O[C@H]5C(=O)O)O[C@@H]4COS(=O)(=O)O)O[C@@H]3C(=O)O)O[C@@H]2COS(=O)(=O)O)nn1)[C@@H](C)O)C(=O)N[C@@H](Cc1ccccc1)C(N)=O [Conjugate C23] | 0.209 | 2.45 | – | –
5 | CNC(=N)NCCC[C@H](NC(=O)[C@H](CC(C)C)NC(=O)CNC(=O)[C@H](Cc1ccccc1)NC(=O)[C@@H](NC(=O)[C@H](CC(N)=O)NC(=O)[C@H](CCCCNC(=O)CCOCCOCCOCCOCCn1cc(CCC(=O)NCCOCCOCCOCCO[C@H]2[C@H](OC)[C@@H](OC)[C@@H](O[C@H]3[C@H](OC)[C@@H](OC)[C@H](O[C@H]4[C@H](OS(=O)(=O)O)[C@@H](OS(=O)(=O)O)[C@@H](O[C@H]5[C@H](OC)[C@@H](OC)[C@H](O[C@H]6[C@H](OS(=O)(=O)O)[C@@H](OS(=O)(=O)O)[C@@H](OC)O[C@@H]6COS(=O)(=O)O)O[C@H]5C(=O)O)O[C@@H]4COS(=O)(=O)O)O[C@@H]3C(=O)O)O[C@@H]2COS(=O)(=O)O)nn1)NC(=O)[C@H](CC(N)=O)NC(=O)[C@@H](N)Cc1ccc(O)cc1)[C@@H](C)O)C(=O)N[C@@H](Cc1ccccc1)C(N)=O [Conjugate C28] | – | – | 0.141 | 4.27
6 | CNC(=N)NCCC[C@H](NC(=O)[C@H](CC(C)C)NC(=O)CNC(=O)[C@H](Cc1ccccc1)NC(=O)[C@@H](NC(=O)[C@H](CC(N)=O)NC(=O)[C@H](Cc1ccccc1)NC(=O)[C@H](CC(N)=O)NC(=O)[C@H](Cc1ccc(O)cc1)NC(=O)CCCCn1cc(CCC(=O)NCCOCCOCCOCCO[C@H]2[C@H](OC)[C@@H](OC)[C@@H](O[C@H]3[C@H](OC)[C@@H](OC)[C@H](O[C@H]4[C@H](OS(=O)(=O)O)[C@@H](OS(=O)(=O)O)[C@@H](O[C@H]5[C@H](OC)[C@@H](OC)[C@H](O[C@H]6[C@H](OS(=O)(=O)O)[C@@H](OS(=O)(=O)O)[C@@H](OC)O[C@@H]6COS(=O)(=O)O)O[C@H]5C(=O)O)O[C@@H]4COS(=O)(=O)O)O[C@@H]3C(=O)O)O[C@@H]2COS(=O)(=O)O)nn1)[C@@H](C)O)C(=O)N[C@@H](Cc1ccccc1)C(N)=O [Conjugate C29] | 0.407 | 8.13 | – | –
7 | CNC(=N)NCCC[C@H](NC(=O)[C@H](CC(C)C)NC(=O)NNC(=O)[C@H](Cc1ccccc1)NC(=O)[C@@H](NC(=O)[C@H](CC(N)=O)NC(=O)[C@@H]1C[C@@H](O)CN1C(=O)[C@@H](Cc1ccc(O)cc1)NC(=O)CCCCn1cc(CCC(=O)NCCOCCOCCOCCO[C@H]2[C@H](OC)[C@@H](OC)[C@@H](O[C@H]3[C@H](OC)[C@@H](OC)[C@H](O[C@H]4[C@H](OS(=O)(=O)O)[C@@H](OS(=O)(=O)O)[C@@H](O[C@H]5[C@H](OC)[C@@H](OC)[C@H](O[C@H]6[C@H](OC)[C@@H](OS(=O)(=O)O)[C@@H](OC)O[C@@H]6COS(=O)(=O)O)O[C@H]5C(=O)O)O[C@@H]4COS(=O)(=O)O)O[C@@H]3C(=O)O)O[C@@H]2COS(=O)(=O)O)nn1)[C@@H](C)O)C(=O)N[C@@H](Cc1c[nH]c2ccccc12)C(N)=O [Conjugate C30] | – | – | 0.0479 | 0.195

Now from value to molecule, other results behind:

Row | EC50 [2] [nM] | EC50 [3] [nM] | Structure (SMILES) | EC50 (pEC50, absence of human serum) [nM] | EC50 [1] [nM]
8 | 0.151 | 0.355 | CNC(=N)NCCC[C@H](NC(=O)[C@H](CC(C)C)NC(=O)NNC(=O)[C@H](Cc1ccccc1)NC(=O)[C@@H](NC(=O)[C@H](CC(N)=O)NC(=O)[C@@H]1C[C@@H](O)CN1C(=O)[C@@H](Cc1ccc(O)cc1)NC(=O)CCOCCOCCOCCOCCn1cc(CCC(=O)NCCOCCOCCOCCOCC(=O)NCCOCCOCCOCCO[C@H]2[C@H](OC)[C@@H](OC)[C@@H](O[C@H]3[C@H](OC)[C@@H](OC)[C@H](O[C@H]4[C@H](OS(=O)(=O)O)[C@@H](OS(=O)(=O)O)[C@@H](O[C@H]5[C@H](OC)[C@@H](OC)[C@H](O[C@H]6[C@H](OC)[C@@H](OS(=O)(=O)O)[C@@H](OC)O[C@@H]6COS(=O)(=O)O)O[C@H]5C(=O)O)O[C@@H]4COS(=O)(=O)O)O[C@@H]3C(=O)O)O[C@@H]2COS(=O)(=O)O)nn1)[C@@H](C)O)C(=O)N[C@@H](Cc1c[nH]c2ccccc12)C(N)=O [Conjugate C32] | – | –
9 | 0.0589 | 0.912 | CNC(=N)NCCC[C@H](NC(=O)[C@H](CC(C)C)NC(=O)NNC(=O)[C@H](Cc1ccccc1)NC(=O)[C@@H](NC(=O)[C@H](CC(N)=O)NC(=O)[C@@H]1C[C@@H](O)CN1C(=O)[C@@H](Cc1ccc(O)cc1)NC(=O)CCOCCOCCOCCOCCn1cc(CCC(=O)NCCOCCOCCOCCOCC(=O)NCCOCCOCCOCCO[C@H]2[C@H](OC)[C@@H](OC)[C@@H](O[C@H]3[C@H](OC)[C@@H](OC)[C@H](O[C@H]4[C@H](OS(=O)(=O)O)[C@@H](OS(=O)(=O)O)[C@@H](O[C@H]5[C@H](OC)[C@@H](OC)[C@H](O[C@H]6[C@H](OS(=O)(=O)O)[C@@H](OS(=O)(=O)O)[C@@H](OC)O[C@@H]6COS(=O)(=O)O)O[C@H]5C(=O)O)O[C@@H]4COS(=O)(=O)O)O[C@@H]3C(=O)O)O[C@@H]2COS(=O)(=O)O)nn1)[C@@H](C)O)C(=O)N[C@@H](Cc1c[nH]c2ccccc12)C(N)=O [Conjugate C33] | – | –
10 | 0.0126 | 0.0912 | CO[C@H]1O[C@H](COS(=O)(=O)O)[C@@H](O[C@@H]2O[C@@H](C(=O)O)[C@@H](O[C@H]3O[C@H](COS(=O)(=O)O)[C@@H](O[C@@H]4O[C@H](C(=O)O)[C@@H](O[C@H]5O[C@H](COS(=O)(=O)O)[C@@H](OCCOCCOCCOCCNC(=O)CCc6cn(CCCCC(=O)N[C@H](Cc7ccc(O)cc7)C(=O)N7C[C@H](O)C[C@H]7C(=O)N[C@@H](CC(N)=O)C(=O)N[C@H](C(=O)N[C@@H](Cc7ccccc7)C(=O)NNC(=O)N[C@@H](CC(C)C)C(=O)N[C@@H](CCCNC(=N)N)C(=O)N[C@@H](Cc7c[nH]c8ccccc78)C(N)=O)[C@@H](C)O)nn6)[C@H](OC)[C@H]5OC)[C@H](OC)[C@H]4OC)[C@H](OS(=O)(=O)O)[C@H]3OS(=O)(=O)O)[C@H](OC)[C@H]2OC)[C@H](OC)[C@H]1OS(=O)(=O)O [Conjugate C36] | – | –
11 | 0.0126 | 1.15 | CO[C@H]1O[C@H](COS(=O)(=O)O)[C@@H](O[C@@H]2O[C@@H](C(=O)O)[C@@H](O[C@H]3O[C@H](COS(=O)(=O)O)[C@@H](O[C@@H]4O[C@H](C(=O)O)[C@@H](O[C@H]5O[C@H](COS(=O)(=O)O)[C@@H](OCCOCCOCCOCCNC(=O)CCc6cn(CCCCC(=O)N[C@H](Cc7ccc(O)cc7)C(=O)N7C[C@H](O)C[C@H]7C(=O)N[C@@H](CC(N)=O)C(=O)N[C@H](C(=O)N[C@@H](Cc7ccccc7)C(=O)NNC(=O)N[C@@H](CC(C)C)C(=O)N[C@@H](CCCNC(=N)N)C(=O)N[C@@H](Cc7c[nH]c8ccccc78)C(N)=O)[C@@H](C)O)nn6)[C@H](OC)[C@H]5OC)[C@H](OC)[C@H]4OC)[C@H](OS(=O)(=O)O)[C@H]3OS(=O)(=O)O)[C@H](OC)[C@H]2OC)[C@H](OS(=O)(=O)O)[C@H]1OS(=O)(=O)O [Conjugate C37] | – | –
